{"source": "paper PMC3722118", "about": "“Hellebrin and its aglycone form hellebrigenin display similar in vitro growth inhibitory effects in cancer cells and binding profiles to the alpha subunits of the Na^+/K^+-ATPase” (Molecular Cancer, 2013)", "test_system": "HT-29 colon cancer cells", "experiment": "O2 consumption rate (MitoXpress assay)", "format": "cell-based, human", "conditions": "compounds at their IC50 (MTT), 24 h", "experimental": "For enzymatic determination of lactate production, confluent tumor cells were incubated with 10 mM glucose for 24 hours. Culture medium was then filtered through centrifugation columns with a 10 KDa cutoff, and L-lactate concentrations were determined on an ISCUSflex analyzer (CMA Microdialysis AB, Solna, Sweden). O2 consumption was determined using the MitoXpress assay according to the manufacturer’s instructions (LuxCell Biosciences, Cork, Ireland). Briefly, after adding the oxygen probe to tumor cells cultured for 24 hours in 96-well microplates with or without the tested compounds, the wells were sealed with mineral oil, and respiration was evaluated using time-resolved fluorescent plate readers. Under these conditions, O2 depletion was translated into an increase in probe phosphorescence signal, and the slope of this signal was used to derive the O2 consumption rate.\nFigure 6 Metabolic profiling of human HT29 colon cancer cells treated with cardiotonic steroids. A: Extracellular lactate concentrations and B: O2 consumption rates in HT29 cancer cells treated with the indicated compounds at their IC50in vitro growth inhibitory concentrations (see Table 1). The data (mean ± SEM from triplicates) are expressed in mM lactate accumulated in the extracellular medium after 24 hours and arbitrary units derived from time-resolved fluorescent signal.min^-1."}
{"smiles": "C[C@@H]1O[C@@H](O[C@H]2CC[C@]3(C=O)[C@H]4CC[C@]5(C)[C@@H](c6ccc(=O)oc6)CC[C@]5(O)[C@@H]4CC[C@]3(O)C2)[C@H](O)[C@H](O)[C@H]1O[C@@H]1O[C@H](CO)[C@@H](O)[C@H](O)[C@H]1O", "note": "[Hellebrin]", "values": [{"measurement": "O2 consumption rate (cell respiration)", "result": "significantly reduced"}]}
